{"source": "ChEMBL document CHEMBL1128729", "about": "“Alpha- and beta-adrenoceptors: from the gene to the clinic. 2. Structure-activity relationships and therapeutic applications” (J Med Chem, 1995)", "key": {"[1]": {"test": "Activity for Alpha-1 adrenergic receptor was assessed from effect on inhibition of neurotransmission in field-stimulated, reserpine-pretreated guinea pig ileum.", "format": "functional, tissue-based"}, "[2]": {"test": "Activity for Alpha-1 adrenergic receptor was assessed from effect on contraction of reserpine-pretreated guinea pig ileum", "format": "functional, tissue-based"}, "[3]": {"test": "Effective dose for compound on contraction of reserpine-pretreated guinea pig aorta.", "format": "functional, tissue-based"}, "[4]": {"target": "Beta-2 adrenergic receptor (Cavia porcellus, UniProt Q8K4Z4)", "sequence (Q8K4Z4 whole entry)": "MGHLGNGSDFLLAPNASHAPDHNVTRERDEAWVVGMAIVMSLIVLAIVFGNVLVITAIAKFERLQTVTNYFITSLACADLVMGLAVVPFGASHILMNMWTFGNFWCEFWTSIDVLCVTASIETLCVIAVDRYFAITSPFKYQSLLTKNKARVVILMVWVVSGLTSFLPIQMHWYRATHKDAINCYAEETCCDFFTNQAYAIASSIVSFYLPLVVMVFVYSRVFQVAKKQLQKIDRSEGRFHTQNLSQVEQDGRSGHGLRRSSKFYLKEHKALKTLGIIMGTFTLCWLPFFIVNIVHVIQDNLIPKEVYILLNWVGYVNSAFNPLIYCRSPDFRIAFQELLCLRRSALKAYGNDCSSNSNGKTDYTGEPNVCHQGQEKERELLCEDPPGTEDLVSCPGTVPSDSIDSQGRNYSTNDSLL", "test": "Activity for Beta-2 adrenergic receptor was assessed from effect on relaxation of guinea pig trachea.", "format": "functional"}, "[5]": {"test": "Effective concentration for inhibition of neurotransmission in field-stimulated, reserpine-pretreated guinea pig ileum.", "format": "functional, tissue-based"}, "[6]": {"test": "Effective dose for on contraction of rabbit aorta.", "format": "functional, tissue-based"}, "Monoamine oxidase": {"target": "T1, Monoamine oxidase (Homo sapiens, UniProt P21397+P27338)", "T1 sequence (P21397 whole entry)": "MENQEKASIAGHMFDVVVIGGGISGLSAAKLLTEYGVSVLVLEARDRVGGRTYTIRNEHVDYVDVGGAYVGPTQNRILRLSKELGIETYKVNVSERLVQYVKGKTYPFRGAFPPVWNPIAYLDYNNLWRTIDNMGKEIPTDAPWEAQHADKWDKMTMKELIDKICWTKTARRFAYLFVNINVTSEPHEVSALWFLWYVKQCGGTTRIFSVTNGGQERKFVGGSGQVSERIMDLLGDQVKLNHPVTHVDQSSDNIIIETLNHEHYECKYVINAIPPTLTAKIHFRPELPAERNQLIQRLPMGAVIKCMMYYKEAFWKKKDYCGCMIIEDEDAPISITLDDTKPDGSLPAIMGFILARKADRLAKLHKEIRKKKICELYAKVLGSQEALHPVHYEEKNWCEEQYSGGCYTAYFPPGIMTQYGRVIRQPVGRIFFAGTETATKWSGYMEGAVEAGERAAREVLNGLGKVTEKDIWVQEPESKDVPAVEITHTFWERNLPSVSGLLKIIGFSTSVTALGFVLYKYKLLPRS", "T1 sequence (P27338 whole entry)": "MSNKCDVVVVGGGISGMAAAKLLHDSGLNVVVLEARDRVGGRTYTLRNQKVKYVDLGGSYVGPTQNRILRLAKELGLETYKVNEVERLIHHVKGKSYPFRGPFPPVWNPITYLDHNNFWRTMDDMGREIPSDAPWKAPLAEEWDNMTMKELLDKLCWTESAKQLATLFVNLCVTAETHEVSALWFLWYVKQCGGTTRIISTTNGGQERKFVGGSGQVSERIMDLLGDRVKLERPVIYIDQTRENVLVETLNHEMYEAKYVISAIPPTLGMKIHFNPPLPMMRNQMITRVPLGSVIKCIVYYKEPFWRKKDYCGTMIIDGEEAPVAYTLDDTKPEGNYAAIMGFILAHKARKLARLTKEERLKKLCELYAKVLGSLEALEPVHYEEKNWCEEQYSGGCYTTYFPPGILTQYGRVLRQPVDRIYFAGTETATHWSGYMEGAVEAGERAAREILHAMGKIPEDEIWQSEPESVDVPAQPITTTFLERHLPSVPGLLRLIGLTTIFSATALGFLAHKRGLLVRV", "test": "Binding affinity for imidazoline receptor I-2", "format": "protein assay"}, "Nischarin": {"target": "Nischarin (Homo sapiens, UniProt Q9Y2I1)", "sequence (Q9Y2I1 whole entry)": "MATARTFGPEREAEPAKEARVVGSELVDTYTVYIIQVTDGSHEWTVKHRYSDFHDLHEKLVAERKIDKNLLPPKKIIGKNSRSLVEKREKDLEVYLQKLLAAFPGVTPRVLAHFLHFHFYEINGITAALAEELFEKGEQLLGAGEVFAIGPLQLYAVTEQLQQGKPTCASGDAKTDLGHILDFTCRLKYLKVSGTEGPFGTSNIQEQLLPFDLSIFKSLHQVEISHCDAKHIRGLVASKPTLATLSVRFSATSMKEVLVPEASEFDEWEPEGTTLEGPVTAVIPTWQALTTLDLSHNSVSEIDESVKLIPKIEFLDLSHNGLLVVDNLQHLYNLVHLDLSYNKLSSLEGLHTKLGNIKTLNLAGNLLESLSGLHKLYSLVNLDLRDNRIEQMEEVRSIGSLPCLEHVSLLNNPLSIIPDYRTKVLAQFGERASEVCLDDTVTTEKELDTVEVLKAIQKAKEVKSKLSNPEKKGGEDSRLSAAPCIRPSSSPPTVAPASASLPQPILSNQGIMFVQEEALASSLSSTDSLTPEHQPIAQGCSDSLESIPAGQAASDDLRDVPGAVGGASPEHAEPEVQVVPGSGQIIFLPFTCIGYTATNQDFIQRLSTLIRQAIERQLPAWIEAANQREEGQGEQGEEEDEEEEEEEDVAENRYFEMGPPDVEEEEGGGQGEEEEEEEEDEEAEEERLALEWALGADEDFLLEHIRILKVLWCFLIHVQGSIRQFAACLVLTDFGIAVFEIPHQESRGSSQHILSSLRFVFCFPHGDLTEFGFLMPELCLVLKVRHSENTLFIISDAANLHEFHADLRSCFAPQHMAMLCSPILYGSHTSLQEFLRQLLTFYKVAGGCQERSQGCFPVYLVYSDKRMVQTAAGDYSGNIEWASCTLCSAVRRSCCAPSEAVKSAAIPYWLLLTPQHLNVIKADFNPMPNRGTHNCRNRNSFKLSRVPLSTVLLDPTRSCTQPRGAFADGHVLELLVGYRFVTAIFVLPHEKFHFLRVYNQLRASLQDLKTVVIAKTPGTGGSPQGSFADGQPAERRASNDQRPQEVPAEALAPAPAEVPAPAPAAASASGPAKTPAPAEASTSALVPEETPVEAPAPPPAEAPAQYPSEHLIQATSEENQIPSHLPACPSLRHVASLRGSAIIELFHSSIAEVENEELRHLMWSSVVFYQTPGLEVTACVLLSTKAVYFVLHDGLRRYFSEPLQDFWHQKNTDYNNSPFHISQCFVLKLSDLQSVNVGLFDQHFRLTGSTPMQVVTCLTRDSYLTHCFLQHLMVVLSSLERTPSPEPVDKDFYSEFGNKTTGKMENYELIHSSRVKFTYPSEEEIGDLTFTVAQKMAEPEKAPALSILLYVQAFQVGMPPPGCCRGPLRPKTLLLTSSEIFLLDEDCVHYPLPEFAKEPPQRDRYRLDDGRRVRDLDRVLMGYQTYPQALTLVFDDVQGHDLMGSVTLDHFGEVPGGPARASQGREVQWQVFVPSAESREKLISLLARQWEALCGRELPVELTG", "test": "Binding affinity for imidazoline receptor I-1"}, "[7]": {"target": "T2, Adrenergic receptor alpha-1 (Rattus norvegicus, UniProt P15823+P23944+P43140)", "T2 sequence (P15823 whole entry)": "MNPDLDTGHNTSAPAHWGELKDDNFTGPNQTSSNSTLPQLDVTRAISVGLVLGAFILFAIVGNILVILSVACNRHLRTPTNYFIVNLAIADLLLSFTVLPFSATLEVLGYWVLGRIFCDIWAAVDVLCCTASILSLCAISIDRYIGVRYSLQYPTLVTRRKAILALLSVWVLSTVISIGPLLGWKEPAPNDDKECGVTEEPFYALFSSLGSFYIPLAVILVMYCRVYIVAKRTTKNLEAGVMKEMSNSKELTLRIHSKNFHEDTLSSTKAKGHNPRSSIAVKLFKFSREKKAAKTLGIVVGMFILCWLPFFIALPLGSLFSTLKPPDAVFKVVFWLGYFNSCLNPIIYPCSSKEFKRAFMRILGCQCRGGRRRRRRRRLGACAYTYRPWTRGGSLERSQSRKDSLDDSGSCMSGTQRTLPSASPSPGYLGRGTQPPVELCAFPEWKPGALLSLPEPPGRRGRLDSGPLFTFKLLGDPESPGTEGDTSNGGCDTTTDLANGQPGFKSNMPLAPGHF", "T2 sequence (P23944 whole entry)": "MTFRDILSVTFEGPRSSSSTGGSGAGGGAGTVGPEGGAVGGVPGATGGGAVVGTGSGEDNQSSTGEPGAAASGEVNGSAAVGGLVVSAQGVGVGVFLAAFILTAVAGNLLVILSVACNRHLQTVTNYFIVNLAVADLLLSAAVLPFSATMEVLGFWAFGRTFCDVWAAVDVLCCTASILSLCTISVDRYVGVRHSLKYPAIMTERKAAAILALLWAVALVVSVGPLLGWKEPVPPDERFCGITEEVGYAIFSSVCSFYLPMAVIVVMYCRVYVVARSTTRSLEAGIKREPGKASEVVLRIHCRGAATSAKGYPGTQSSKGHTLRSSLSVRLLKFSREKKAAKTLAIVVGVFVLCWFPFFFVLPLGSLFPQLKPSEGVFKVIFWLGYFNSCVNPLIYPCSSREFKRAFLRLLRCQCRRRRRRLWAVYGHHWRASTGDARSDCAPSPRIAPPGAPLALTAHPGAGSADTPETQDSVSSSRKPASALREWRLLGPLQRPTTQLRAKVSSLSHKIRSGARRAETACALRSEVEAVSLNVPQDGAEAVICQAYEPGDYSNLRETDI", "T2 sequence (P43140 whole entry)": "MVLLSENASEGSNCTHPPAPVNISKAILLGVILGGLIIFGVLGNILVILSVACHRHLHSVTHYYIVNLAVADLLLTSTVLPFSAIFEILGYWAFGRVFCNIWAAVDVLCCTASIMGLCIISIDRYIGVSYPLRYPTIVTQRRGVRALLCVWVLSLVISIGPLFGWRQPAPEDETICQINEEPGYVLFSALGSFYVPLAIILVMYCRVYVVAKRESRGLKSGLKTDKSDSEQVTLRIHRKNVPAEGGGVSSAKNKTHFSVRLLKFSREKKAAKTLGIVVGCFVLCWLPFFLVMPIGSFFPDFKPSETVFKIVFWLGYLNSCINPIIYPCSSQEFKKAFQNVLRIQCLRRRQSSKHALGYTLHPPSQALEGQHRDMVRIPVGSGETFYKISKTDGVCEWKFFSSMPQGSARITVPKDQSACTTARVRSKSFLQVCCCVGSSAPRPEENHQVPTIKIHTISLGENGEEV", "test": "Effective dose for contraction of reserpine-pretreated rat vas deferens.", "format": "functional"}, "[8]": {"test": "Effective dose for contraction of rabbit aorta.", "format": "functional, tissue-based"}, "[9]": {"test": "Effective dose for contraction of reserpine-pretreated guinea pig aorta.", "format": "functional, tissue-based"}, "[10]": {"test": "Effective dose for inhibition of neurotransmission in field-stimulated, reserpine-pretreated guinea pig ileum.", "format": "functional, tissue-based"}}, "data": [{"smiles": "C[C@@H](N)[C@@H](O)c1ccc(O)c(O)c1", "values": [{"measurement": "EC50", "setting": "[1]", "value": 10000, "unit": "nM"}, {"measurement": "EC50", "setting": "[2]", "value": 46800, "unit": "nM"}]}, {"smiles": "NCC(O)c1ccc(O)c(O)c1", "note": "(single isomer, unassigned) [NOREPINEPHRINE]", "values": [{"measurement": "EC50", "setting": "[3]", "value": 12000, "unit": "nM"}, {"measurement": "EC50", "setting": "[4]", "value": 30000, "unit": "nM"}, {"measurement": "EC50", "setting": "[5]", "value": 14500, "unit": "nM"}, {"measurement": "EC50", "setting": "[6]", "value": 2000, "unit": "nM"}]}, {"smiles": "Clc1cccc(Cl)c1NC1=NCCN1", "note": "[CLONIDINE]", "values": [{"measurement": "Ki", "setting": "Monoamine oxidase", "value": "> 100", "unit": "nM"}, {"measurement": "Ki", "setting": "Nischarin", "value": "< 10", "unit": "nM"}]}, {"smiles": "C[C@H](N)[C@H](O)c1ccc(O)c(O)c1", "note": "[LEVONORDEFRIN]", "values": [{"measurement": "EC50", "setting": "[7]", "value": 776, "unit": "nM"}, {"measurement": "EC50", "setting": "[5]", "value": 19, "unit": "nM"}]}, {"smiles": "NC[C@H](O)c1ccc(O)c(O)c1", "note": "[NOREPINEPHRINE]", "values": [{"measurement": "EC50", "setting": "[8]", "value": 6.6, "unit": "nM"}, {"measurement": "EC50", "setting": "[9]", "value": 112, "unit": "nM"}, {"measurement": "EC50", "setting": "[4]", "value": 213, "unit": "nM"}, {"measurement": "EC50", "setting": "[10]", "value": 30, "unit": "nM"}]}]}
